Results on two molecules are retold here after article PMC11480233, “Structural insights into the Caprin-2 HR1 domain in canonical Wnt signaling” (The Journal of Biological Chemistry, 2024).

In data set [1] the target is T1, hCap2_HR1 (HR1 domain of human Caprin-2) (Homo sapiens, UniProt Q6IMN6, R200E/R201E).
T1 construct: gene CAPRIN2; HR1 domain, aa S102-K351, E. coli BL21-CodonPlus-RIL, modified pET-28a with His tag and TEV site; His tag kept for lipid strip
T1 sequence (Q6IMN6 102-351 R200E/R201E): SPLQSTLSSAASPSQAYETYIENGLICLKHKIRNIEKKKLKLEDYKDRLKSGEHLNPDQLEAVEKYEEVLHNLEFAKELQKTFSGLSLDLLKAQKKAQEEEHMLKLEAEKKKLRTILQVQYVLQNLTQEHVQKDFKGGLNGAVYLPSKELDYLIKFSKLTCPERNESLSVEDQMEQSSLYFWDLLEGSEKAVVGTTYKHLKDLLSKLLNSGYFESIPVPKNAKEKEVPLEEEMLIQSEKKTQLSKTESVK
As to the kind of experiment: biolayer interferometry (Octet Red96). Conditions: labelled compound; biotinylated PI4P immobilised on streptavidin sensors; 20 mM Tris pH 7.5, 150 mM NaCl, 0.2 mM DTT, 0.05% Tween-20, 0.2 mg/ml BSA. The class given is binding. In general terms: BLI is a label-free optical method that tracks binding on a fibre tip over time.

Data set [2] addresses T2, hCap2_HR1 (HR1 domain of human Caprin-2) (Homo sapiens, UniProt Q6IMN6).
T2 construct: gene CAPRIN2; HR1 domain, aa S102-K351, E. coli BL21-CodonPlus-RIL, modified pET-28a with His tag and TEV site; His tag kept for lipid strip
T2 sequence (Q6IMN6 102-351): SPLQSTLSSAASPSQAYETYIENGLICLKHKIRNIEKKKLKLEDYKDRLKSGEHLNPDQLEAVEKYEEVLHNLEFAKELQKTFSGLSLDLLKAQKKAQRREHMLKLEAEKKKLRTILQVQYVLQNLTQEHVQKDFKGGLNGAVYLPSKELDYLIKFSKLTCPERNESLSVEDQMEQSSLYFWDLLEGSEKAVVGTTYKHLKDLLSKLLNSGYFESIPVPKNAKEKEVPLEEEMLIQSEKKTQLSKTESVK
As to the kind of experiment: biolayer interferometry (Octet Red96). The class given is binding. Conditions: labelled compound; biotinylated PI4P immobilised on streptavidin sensors; 20 mM Tris pH 7.5, 150 mM NaCl, 0.2 mM DTT, 0.05% Tween-20, 0.2 mg/ml BSA.

Data set [3] concerns the molecule itself. Put plainly: SEC; Superdex 200 with a calibration curve; estimated MW 66.45 kDa against theoretical 29.2 kDa.

Broadly, the Kd is the equilibrium constant for the complex coming apart. Read a high Kd as a looser complex. In the case of biotinylated PI4P, the Kd in data set [1] was 152 µM; in data set [2] it was 2 µM.

B1: HR1 domain of human Caprin-2 (aa S102-K351) (domain or fragment, UniProt Q6IMN6 102-351, looked up)
chain: SPLQSTLSSAASPSQAYETYIENGLICLKHKIRNIEKKKLKLEDYKDRLKSGEHLNPDQLEAVEKYEEVLHNLEFAKELQKTFSGLSLDLLKAQKKAQRREHMLKLEAEKKKLRTILQVQYVLQNLTQEHVQKDFKGGLNGAVYLPSKELDYLIKFSKLTCPERNESLSVEDQMEQSSLYFWDLLEGSEKAVVGTTYKHLKDLLSKLLNSGYFESIPVPKNAKEKEVPLEEEMLIQSEKKTQLSKTESVK
notes: Caprin-2, human, HR1 domain construct, residues S102-K351, cloned from full-length human Caprin-2; Modified pET-28a vector with a TEV site in place of the thrombin site; A SeMet triple mutant I217M/L251M/L301M of the same limits was used for phasing; also called hCap2_HR1; Cap2_HR1
Usually stoichiometry N stands for the number of molecules, sites or subunits per partner or assembly. Consider B1, for which, in data set [3], the “stoichiometry N” value is 2.
